In ChEMBL document CHEMBL1909046, “DrugMatrix in vitro pharmacology data”:

Tests used:
[1] = biological target: T1, C-X-C chemokine receptor type 2 (Homo sapiens, UniProt P25025); type: cell membranes, CHO-K1, Membrane; conditions: cho-k1; further: in other assays of this panel Not Active means under 50% inhibition at 10 µM
T1 sequence (P25025 whole entry): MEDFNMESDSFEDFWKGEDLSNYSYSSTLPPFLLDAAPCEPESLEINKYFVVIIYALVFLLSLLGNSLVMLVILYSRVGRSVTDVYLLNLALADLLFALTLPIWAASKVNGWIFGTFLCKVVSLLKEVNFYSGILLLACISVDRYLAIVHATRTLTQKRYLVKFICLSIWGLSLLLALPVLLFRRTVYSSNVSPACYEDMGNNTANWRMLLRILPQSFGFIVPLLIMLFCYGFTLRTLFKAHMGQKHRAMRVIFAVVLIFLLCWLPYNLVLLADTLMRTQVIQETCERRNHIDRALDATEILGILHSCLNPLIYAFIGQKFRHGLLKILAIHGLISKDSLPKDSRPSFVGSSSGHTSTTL

[2] = biological target: Tyrosine-protein kinase Fyn (Homo sapiens, UniProt P06241); assay: biochemical; type: cell-based, Insect cells; conditions: insect cells;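 further: enzymatic inhibition of Fyn kinase activity measured with Poly(Glu:Tyr) as the phosphorylation substrate; in other assays of this panel Not Active means under 50% inhibition at 10 µM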
Sequence of Tyrosine-protein kinase Fyn (P06241 whole entry): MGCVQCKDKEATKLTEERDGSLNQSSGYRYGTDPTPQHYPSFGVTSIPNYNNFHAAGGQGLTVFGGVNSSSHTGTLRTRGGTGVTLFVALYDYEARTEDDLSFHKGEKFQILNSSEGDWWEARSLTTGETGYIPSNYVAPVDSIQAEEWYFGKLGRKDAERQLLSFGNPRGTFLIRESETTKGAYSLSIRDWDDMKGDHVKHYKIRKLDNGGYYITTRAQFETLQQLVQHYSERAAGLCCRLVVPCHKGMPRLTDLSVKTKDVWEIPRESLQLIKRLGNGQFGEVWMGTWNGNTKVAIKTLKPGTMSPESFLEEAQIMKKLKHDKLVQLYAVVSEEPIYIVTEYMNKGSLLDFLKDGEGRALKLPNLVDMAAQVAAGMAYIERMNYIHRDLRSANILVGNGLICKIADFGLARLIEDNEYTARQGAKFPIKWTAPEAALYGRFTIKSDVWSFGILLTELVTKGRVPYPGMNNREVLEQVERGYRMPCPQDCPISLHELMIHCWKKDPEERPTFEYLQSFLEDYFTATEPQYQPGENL

[3] = DRUGMATRIX: Nicotinic Acetylcholine radioligand binding (ligand: [125I] Epibatidine); type: cell membranes, Membrane; conditions: imr-32; Not Active = under 50% inhibition at 10 µM
[4] = biological target: Sigma non-opioid intracellular receptor 1 (Homo sapiens, UniProt Q99720); assay: DRUGMATRIX: Sigma1 radioligand binding (ligand: [3H] Haloperidol); type: cell membranes, Jurkat, Membrane; conditions: jurkat; Not Active = under 50% inhibition at 10 µM
Sequence of Sigma non-opioid intracellular receptor 1 (Q99720 whole entry): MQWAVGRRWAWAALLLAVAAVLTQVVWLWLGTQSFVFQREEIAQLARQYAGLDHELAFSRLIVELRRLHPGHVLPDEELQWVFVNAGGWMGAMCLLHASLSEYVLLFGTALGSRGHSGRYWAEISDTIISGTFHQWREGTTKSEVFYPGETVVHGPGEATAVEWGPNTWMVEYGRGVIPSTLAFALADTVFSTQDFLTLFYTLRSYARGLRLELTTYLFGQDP

[5] = DRUGMATRIX: Phorbol Ester radioligand binding (ligand: [3H] PDBu); type: cell membranes, Mus musculus, ICR, Brain, Membrane; conditions: Not Active = under 50% inhibition at 10 µM
[6] = DRUGMATRIX: Calcium Channel Type L, Phenylalkylamine radioligand binding (ligand: [3H] (-)-Desmethoxyverapamil (D-888)); type: cell membranes, Rattus norvegicus, Wistar, Brain, Membrane; conditions: Not Active = under 50% inhibition at 10 µM

COc1cc([C@@H]2c3cc4c(cc3[C@H](O)[C@H]3COC(=O)[C@H]23)OCO4)cc(OC)c1OC [PODOFILOX]
Not Active: IC50 [1] | IC50 [2] | IC50 [3] | Ki [3] | IC50 [4] | IC50 [5] | Ki [5] | IC50 [6] | Ki [6]

OC[C@H]1OC2C3[C@@H](CO)OC(O[C@H]4[C@H](O)[C@@H](O)[C@@H](O[C@H]5[C@H](O)[C@@H](O)[C@@H](O[C@H]6[C@H](O)[C@@H](O)[C@@H](O[C@H]7[C@H](O)[C@@H](O)[C@@H](O[C@H]8[C@H](O)[C@@H](O)[C@@H](O[C@H]9[C@H](O)[C@@H](O)C(OC1[C@H](O)[C@H]2O)O[C@@H]9CO)O[C@@H]8CO)O[C@@H]7CO)O[C@@H]6CO)O[C@@H]5CO)O[C@@H]4CO)[C@H](O)[C@H]3O
Not Active: IC50 [1] | IC50 [2] | IC50 [3] | Ki [3] | IC50 [4] | IC50 [5] | Ki [5] | IC50 [6] | Ki [6]

Nc1ccc(C(=O)O)c(O)c1 [AMINOSALICYLIC ACID]
Not Active: IC50 [1] | IC50 [2] | IC50 [3] | Ki [3] | IC50 [4] | IC50 [5] | Ki [5] | IC50 [6] | Ki [6]

O=c1[nH]cnc2c1ncn2[C@H]1CC[C@@H](CO)O1 [DIDANOSINE]
Not Active: IC50 [1] | IC50 [2] | IC50 [3] | Ki [3] | IC50 [4] | IC50 [5] | Ki [5] | IC50 [6] | Ki [6]

CCCCCCNC(=O)n1cc(F)c(=O)[nH]c1=O [CARMOFUR]
Not Active: IC50 [1] | IC50 [2] | IC50 [3] | Ki [3] | IC50 [4] | IC50 [5] | Ki [5] | IC50 [6] | Ki [6]

C#C[C@]1(O)CC[C@H]2[C@@H]3CCC4=CC(=O)CC[C@@H]4[C@H]3CC[C@@]21C [NORETHINDRONE]
Not Active: IC50 [1] | IC50 [2] | IC50 [3] | Ki [3] | IC50 [4] | IC50 [5] | Ki [5] | IC50 [6] | Ki [6]

Cl.NC[C@H]1CC[C@H](C(=O)Oc2ccc(CCC(=O)O)cc2)CC1 [CETRAXATE HYDROCHLORIDE]
Not Active: IC50 [1] | IC50 [2] | IC50 [3] | Ki [3] | IC50 [4] | IC50 [5] | Ki [5] | IC50 [6] | Ki [6]

CC(C)Cn1cnc2c(N)nc3ccccc3c21 [IMIQUIMOD]
Not Active: IC50 [1] | IC50 [2] | IC50 [3] | Ki [3] | IC50 [4] | IC50 [5] | Ki [5] | IC50 [6] | Ki [6]
